{"source": "paper PMC2908543", "about": "“Uropathogenic Escherichia coli Modulates Immune Responses and Its Curli Fimbriae Interact with the Antimicrobial Peptide LL-37” (PLoS Pathogens, 2010)", "key": {"[1]": {"tested_on": "E. coli strain No. 12 and isogenic mutants", "type": "cell-based, Escherichia coli", "conditions": "bacteria pre-grown planktonically, curli expression suppressed (data not shown)", "method": "For further investigation, E. coli isolate No. 12 from a child with pyelonephritis was chosen. This was a typical isolate expressing both curli and cellulose as well as type 1 fimbriae and yielding an approximately median level of biofilm as measured on microtiter plates. One-step knockout of bcsA and csgBA was carried out according to the protocol of Datsenko and Wanner with modifications, [50]. The following mutants were constructed using oligos listed in Table 1; WE1 bcsA::Cm, deficient in cellulose production; WE11 csgBA::Cm, deficient in curli production; and WE16 csgBA bscA::Cm, deficient in both cellulose and curli production. Expression of curli and cellulose in strain No. 12 was confirmed by these knockouts. Production of type 1 fimbriae under the culture conditions used for experiments was confirmed by yeast agglutination (see below).\nThe susceptibility of wild-type and mutant E. coli strains to synthetic LL-37 and mCRAMP (Innovagen AB, Lund, Sweden) was determined using a broth microdilution method. Briefly, bacteria were grown overnight at 37°C on LB plates with or without salt, inhibiting or promoting the formation of biofilm, respectively. Then, bacteria were suspended in PBS and diluted in LB broth without salt in a concentration of 10^5 CFU/ml. The bacterial concentration was verified by viable count after serial dilutions in PBS. Bacteria (90 µl suspension) were grown in 96-well plates in the presence of 10 µl aqueous solution of synthetic LL-37 or mCRAMP in final concentrations ranging from 0.6 µM to 20 µM in 2-fold dilutions. After 20 h, bacterial viability was measured colorimetrically by reduction of Alamar blue (BioSource International, Camarillo, CA, USA) for 1 h at 37°C [57]. The IC50 was determined as the peptide concentration that gave 50% reduction of the absorbance at 570 nm relative to bacteria grown without peptide."}, "[2]": {"target": "T1, CsgA polymerization (Escherichia coli, UniProt P28307)", "T1 construct": "made in house; host or cells: E. coli LSR12 (C600::csg), co-expressed with CsgG", "T1 sequence (P28307 21-151)": "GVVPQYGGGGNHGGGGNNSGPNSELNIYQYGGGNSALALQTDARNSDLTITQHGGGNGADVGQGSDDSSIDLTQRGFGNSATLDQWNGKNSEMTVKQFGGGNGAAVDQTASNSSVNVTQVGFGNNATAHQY", "assay": "CsgA polymerization, Thioflavin T assay, Tecan plate reader", "type": "biochemical", "conditions": "20 µM ThT, 37°C", "method": "(§1) CsgA-His6 and CsgG, a lipoprotein that is required for CsgA secretion, were overexpressed in LSR12 (C600::csg). The purification procedure of recombinant CsgA-His6 was performed as previously described with some modifications. The filtrate was incubated with nickel-nitrilotriacetic acid (Ni-NTA) agarose (Invitrogen) for 1 h at 4°C with shaking, centrifuged at 200×g for 5 min and transferred to a polyprep chromatography column (Bio-Rad, Hercules, CA, USA). To confirm protein identity of CsgA-His6, the isolated protein was prepared and subjected to SDS-PAGE as described below, and thereafter the protein was transferred from the gel to a polyvinylidene fluoride (PVDF) membrane (Invitrogen) at 160 mA for 60 min. The band of 15 kDa, corresponding to the molecular weight of CsgA-His6, was excised from the membrane stained with Coomassie Blue and analysed with N-terminal sequence analysis as has been described. Since it has previously been shown that CsgA-His6 has the same polymerizing properties as wild-type CsgA [59], we refer to CsgA-His6 as CsgA.\nPurified recombinant monomeric CsgA (10 µM) with or without different concentrations of the peptides LL-37, sLL-37 or VIP was mixed with 20 µM of the fiber-specific fluorescent probe ThT (Sigma-Aldrich). Fluorescence was measured with a Tecan infinite M200 reader (Tecan Nordic AB, Täby, Sweden). The excitation and emission wavelength was 430 and 490 nm, respectively. Measurements were conducted at 37°C every 10 min after shaking the sample for five seconds. Background fluorescence of the peptides themselves was subtracted."}, "[3]": {"tested_on": "CsgA", "assay": "CD spectroscopy of CsgA", "design": "species or system Escherichia coli", "conditions": "40 µM CsgA alone, 50 mM KPi, 0.02% NaN3, pH 7.2, 60 h at 37°C", "method": "Samples containing 40 µM CsgA in 50 mM potassium phosphate buffer (KPi) and 0.02% NaN3, pH 7.2, with and without 10 µM LL-37 were incubated for 60 h at 37°C. The samples were then assayed with a Jasco J-810 spectropolarimeter from 190 to 250 nm in a quartz cell with a 1-mm path length at 20°C. The spectrum of buffer alone and LL-37 in buffer was subtracted from the spectra for CsgA alone and for CsgA together with LL-37, respectively."}, "[4]": {"tested_on": "toll-like receptor 2", "conditions": "cytokine induction by Salmonella; ref [31]; cited from earlier work", "text": "In the pathogenesis of infection, curli fimbriae have previously been implicated in the attachment and invasion of host cells, interaction with host proteins and activation of the immune system, [29], [30]."}, "[5]": {"tested_on": "curli-mediated biofilm formation by E. coli", "assay": "Effect on formation of biofilm, crystal violet microtiter plate", "type": "cell-based, Escherichia coli", "method": "To measure the ability of the bacteria to adhere and to form biofilm a crystal violet assay in polystyrene microtiter plates (Costar, Corning, NY, USA) was performed. Bacteria were grown in Luria-Bertani (LB) broth without salt for 24 h at 37°C without shaking. Biofilm was then stained with crystal violet (3%). The dye was solubilized with ethanol (95%) and the optical density was measured at 570 nm.\nPlates were filled with 90 µL bacterial culture of planktonic cells and 10 µL of aqueous solution of LL-37 in the same concentrations as in the susceptibility assay. As control peptides, sLL-37 (Innovagen AB) and VIP [27] with similar structural properties as LL-37 were utilized. The plates were incubated without shaking at 37°C for 20 h. After incubation, the amount of biofilm formed was determined as described above."}, "[6]": {"target": "T2, polymeric CsgA (Escherichia coli, UniProt P28307)", "T2 construct": "made in house; host or cells: E. coli LSR12 (C600::csg), co-expressed with CsgG", "T2 sequence (P28307 21-151)": "as above", "assay": "Surface plasmon resonance, polymeric CsgA", "conditions": "polymeric CsgA immobilized (7000 response units), 0.1 µM peptide, 20 µl/min for 3 min, HBS-EP, Biacore 3000; binding constants not determinable", "method": "(§2) Binding analysis of LL-37 to both monomeric and polymeric CsgA was performed with surface plasmon resonance (Biacore 3000 instrument; Biacore AB, Uppsala, Sweden). Both monomeric and polymeric CsgA was immobilized on a CM5 sensor chip (Biacore AB) surface by amine coupling. The chip surface was normalized in 70% glycerol and lanes on the chip were activated with injection of 35 µL 0.05 M N-hydroxysuccinimide (NHS)/0.2 M N-ethyl-N′-[3-dimethylamino) propyl]carbodiimide (EDC). Polymeric or monomeric CsgA (1 µM in 10 mM sodium acetate, pH 4.5) was then immobilized on the chip to 7000 response units and 2000 response units, respectively. After immobilization, the lanes were subjected to 60 µL ethanolamine (1 M, pH 8.5) to deactivate remaining activated carboxylic groups. One lane, activated and deactivated, was used as negative control (without addition of CsgA). Standard Biacore HBS-EP (Biacore AB) was utilized as running buffer, and 0.1 µM LL-37, sLL-37 or VIP were injected at 20 µl/min for 3 min. The surface was regenerated after each cycle with 100 mM HCl."}, "[7]": {"target": "T3, monomeric CsgA (Escherichia coli, UniProt P28307)", "T3 construct": "made in house; host or cells: E. coli LSR12 (C600::csg), co-expressed with CsgG", "T3 sequence (P28307 21-151)": "as above", "assay": "Surface plasmon resonance, monomeric CsgA", "conditions": "monomeric CsgA immobilized (2000 response units), 0.1 µM peptide, 20 µl/min for 3 min, HBS-EP, Biacore 3000; binding constants not determinable", "method": "as §2"}, "[8]": {"tested_on": "CsgA fiber formation", "assay": "CsgA fiber formation, Thioflavin T, confocal microscopy", "type": "biochemical, Escherichia coli", "conditions": "CsgA with equimolar peptide (1∶1), 20 µM ThT, 20 h at 37°C; CsgA alone = 1 arbitrary unit; corrected for peptide fluorescence; two experiments", "method": "as §1\nRecombinant monomeric CsgA was mixed with equimolar LL-37, sLL-37 or VIP and 20 µM ThT, and incubated over night at 37°C, washed twice, and suspended in 10 mM Kpi, pH 7.2 before mounting in ProLong Gold antifade mounting medium (Invitrogen). Images were acquired on a Leica TCS SP5 confocal microscope using a 20× objective. Fluorescence intensity was quantified using ImageJ software. The difference in fluorescence intensity of CsgA with and without peptides was calculated and corrected for the contribution of fluorescence from the peptides themselves."}}, "note": "Residues, ends and D or L forms follow the SMILES beside them."}
{"molecule": "CC[C@H](C)[C@H](NC(=O)[C@H](CCCCN)NC(=O)[C@H](CCC(=O)O)NC(=O)CNC(=O)CNC(=O)[C@H](CCCCN)NC(=O)[C@H](CCCNC(=N)N)NC(=O)[C@H](CC(C)C)NC(=O)[C@H](CC(C)C)NC(=O)CN)C(=O)NCC(=O)N[C@@H](CCC(=O)O)C(=O)N[C@@H](CCCCN)C(=O)N[C@@H](CC(C)C)C(=O)N[C@@H](CCCCN)C(=O)N[C@@H](CCCCN)C(=O)N[C@H](C(=O)NCC(=O)N[C@@H](CCC(N)=O)C(=O)N[C@@H](CCCCN)C(=O)N[C@H](C(=O)N[C@@H](CCCCN)C(=O)N[C@@H](CC(N)=O)C(=O)N[C@@H](Cc1ccccc1)C(=O)N[C@@H](Cc1ccccc1)C(=O)N[C@@H](CCC(N)=O)C(=O)N[C@@H](CCCCN)C(=O)N[C@@H](CC(C)C)C(=O)N[C@H](C(=O)N1CCC[C@H]1C(=O)N[C@@H](CCC(N)=O)C(=O)N1CCC[C@H]1C(=O)N[C@@H](CCC(=O)O)C(=O)N[C@@H](CCC(N)=O)C(=O)O)C(C)C)[C@@H](C)CC)[C@@H](C)CC", "note": "[mCRAMP] (H-GLLRKGGEKIGEKLKKIGQKIKNFFQKLVPQPEQ-OH; N-terminus and C-terminus assumed)", "values": [{"measurement": "difference in resistance between the strains", "setting": "[1]", "result": "no significant difference in the resistance"}]}
{"molecule": "CsgA: major curli subunit, recombinant CsgA-His6", "values": [{"measurement": "time to stationary phase of CsgA polymerization", "setting": "[2]; 10 µM CsgA alone", "result": "approximately 300 min"}, {"measurement": "solubility of polymeric CsgA (from CD signal amplitude)", "setting": "[3]", "result": "decreased solubility due to polymerization"}, {"measurement": "binding to toll-like receptor 2", "setting": "[4]", "result": "binding of CsgA to toll-like receptor 2"}]}
{"molecule": "vasoactive intestinal peptide [VIP]", "values": [{"measurement": "reduction of biofilm formation", "setting": "[5]; 2.5 µM peptide, cellulose-negative, curli-expressing E. coli strain, 37°C, 20 h, two experiments in triplicates", "result": 10, "unit": "%"}, {"measurement": "biofilm reduction compared with the effect of LL-37", "setting": "[5]; 2.5 µM, P = 0.001, t-test", "result": "significantly lower reduction than the effect of LL-37"}, {"measurement": "binding / association and dissociation by SPR", "setting": "[6]", "result": "faster dissociation rates than LL-37, indicating a weaker binding to CsgA"}, {"measurement": "binding / association and dissociation by SPR", "setting": "[7]", "result": "faster dissociation rates than LL-37, indicating a weaker binding to CsgA"}, {"measurement": "inhibition of CsgA polymerization (ThT fluorescence)", "setting": "[2]; 10 µM CsgA with different concentrations of peptide", "result": "less pronounced effect on CsgA polymerization than LL-37"}, {"measurement": "fluorescence relative to CsgA alone", "setting": "[8]", "result": "approximately 0.2 arbitrary units"}]}
